Tests used:
[1] = tested on: H2086; assay: NSCLC panel sensitivity to 6-thio-dG, H2086; format: cell-based, human; conditions: 3 μM every three days for 1 week, normalized to DMSO control
Procedure: A panel of NSCLC cell lines was tested for sensitivity to 6-thio-dG by performing a cell count after 1 week treatment. Briefly, cells were treated with 3 μM 6-thio-dG every three days for 1 week. Viable cells were counted at the end of treatment. Each 6-thiodG treated cell line was normalized to its DMSO treated control. The results of the cell count are depicted in FIG. 12, with the various cell lines arranged in descending resistance to 6-thio-dG from left to right. […] The IC50 values for the whole panel of tested cells are depicted in FIG. 13. The IC50 values for tested cells are depicted as a column scatter graph in FIG. 14.

[2] = tested on: HCT116 colon cancer cell line; assay: CellTitreGlo survival, 7 days, HCT116; format: cell-based; conditions: Homo sapiens, HCT-116, 168 h
Procedure: Four different cell lines were treated with nine different doses of 6-thio-dG for 7 days. HCT116 colon cancer cell line (FIG. 9A), HCEC1 normal colonic cell line (FIG. 9C), A549 non-small cell lung cancer cell line (FIG. 9B), and BJ normal fibroblast cell line (FIG. 9D) were each treated. Survival fraction was measured by CellTitreGlo luminescent cell viability assay (Promega).

## Nc1nc2c(ncn2[C@H]2C[C@H](O)[C@@H](CO)O2)c(=S)[nH]1 [6-thio-dG, 6-thio-2′-deoxyguanosine]
[1]
  survival rate: greater than 50%
[2]
  IC50: 1100 nM
